In PMC9537541, “Synthesis and anticancer activity of new benzensulfonamides incorporating s-triazines as cyclic linkers for inhibition of carbonic anhydrase IX” (Scientific Reports, 2022):
Structures can show the parent of a compound that is named as a salt.

Tests used:
[1] = molecular target: T1, hCA I (Homo sapiens, UniProt P00915); assay: stopped-flow CO2 hydrase assay, hCA I; assay type: biochemical; conditions: stopped flow technique, mean from 3 different assays
T1 construct: made in house
Experimental: (§1) Target compounds of series (A) and (B) were screened as inhibitors concerning the physiologically relevant hCAs; cytosolic isoforms (hCA I and II) in addition to the transmembrane tumor related isoforms (hCA IX and XII) via a stopped-flow assay of carbonic anhydrase catalyzed CO2 hydration. Acetazolamide (AAZ), CA I drug, was also incorporated in the assays as a standard drug. […] Four CA isoforms inhibition activity was measured by assaying CA catalyzed CO2 hydration via an applied photophysics stopped-flow instrument. PRISM 3 and the Cheng-prusoff equation were used to determine the inhibition constant by non-linear least square methods as reported, and represent the mean from three different determination at least. All tested carbonic anhydrase isoforms were recombinant proteins prepared in lab as described earlier,[57].

[2] = molecular target: T2, hCA II (Homo sapiens, UniProt P00918); assay: stopped-flow CO2 hydrase assay, hCA II; assay type: biochemical; conditions: for Ki: stopped flow technique, mean from 3 different assays
T2 construct: made in house
Experimental: as §1

[3] = molecular target: T3, hCA IX (Homo sapiens, UniProt Q16790); assay: stopped-flow CO2 hydrase assay, hCA IX; assay type: biochemical; conditions: for Selectivity index (SI) I/IX: hCA IX over off-target hCA I; for Selectivity index (SI) II/IX: hCA IX over off-target hCA II; for Ki: stopped flow technique, mean from 3 different assays
T3 construct: made in house
Experimental: as §1

[4] = molecular target: T4, hCA XII (Homo sapiens, UniProt O43570); assay: stopped-flow CO2 hydrase assay, hCA XII; assay type: biochemical; conditions: for Selectivity index (SI) I/XII: hCA XII over off-target hCA I; for Selectivity index (SI) II/XII: hCA XII over off-target hCA II; for Ki: stopped flow technique, mean from 3 different assays
T4 construct: made in house
Experimental: as §1

[5] = system: CNS cancer (SNB-75); assay: NCI single dose SRB screen, SNB-75; assay type: cell-based; conditions: Homo sapiens, SNB-75, 48 h, 10^−5 M single dose, read-out: GI% CNS cancer (SNB-75)
Experimental: (§2) Target compounds in series (A) and (B), were submitted to the National Cancer Institute (NCI) Developmental Therapeutic Program (www.dtp.nci.nih.gov), where they have been assessed, in vitro for their anticancer activity. Two series (A) and (B), were screened in a single dose (10 µM) versus full panel composed of 60 cancer cell lines, in accordance with protocol of drug evaluation branch, NCI, Bethesda. Sulforhodamine B (SRB) colorimetric assay was used to determine cell growth and viability,[40].
(§3) Protocol of Drug Evaluation Branch, NCI, Bethesda, was adopted in the antitumor assay. Assessment of cell growth and viability was carried out utilizing SRB assay and 48 h drug exposure protocol as previously reported,[40].

[6] = system: Renal cancer (UO-31); assay: NCI single dose SRB screen, UO-31; assay type: cell-based; conditions: Homo sapiens, UO-31, 48 h, 10^−5 M single dose, read-out: GI% Renal cancer (UO-31)
Experimental: as §2, §3

[7] = system: Breast cancer (MDA-MB-468); assay: NCI single dose SRB screen, MDA-MB-468; assay type: cell-based; conditions: Homo sapiens, MDA-MB-468, 48 h, 10^−5 M single dose, 48 h, SRB; read-out: GI% Breast cancer (MDA-MB-468)
Experimental: as §2, §3

[8] = system: Leukemia (SR); assay: NCI single dose SRB screen, SR; assay type: cell-based; conditions: 48 h, 10^−5 M single dose, read-out: GI% Leukemia (SR)
Experimental: as §2, §3

T4 sequence (O43570 25-354): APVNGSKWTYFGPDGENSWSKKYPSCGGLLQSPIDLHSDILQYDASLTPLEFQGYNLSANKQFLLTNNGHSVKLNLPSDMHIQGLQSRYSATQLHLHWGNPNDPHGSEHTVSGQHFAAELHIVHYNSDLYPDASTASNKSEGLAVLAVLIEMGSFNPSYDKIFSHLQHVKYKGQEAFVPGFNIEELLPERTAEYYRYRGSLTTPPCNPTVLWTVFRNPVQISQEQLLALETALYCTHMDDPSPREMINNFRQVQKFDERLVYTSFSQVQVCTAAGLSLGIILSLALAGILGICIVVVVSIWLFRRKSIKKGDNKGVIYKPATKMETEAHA
T1 sequence (P00915 whole entry): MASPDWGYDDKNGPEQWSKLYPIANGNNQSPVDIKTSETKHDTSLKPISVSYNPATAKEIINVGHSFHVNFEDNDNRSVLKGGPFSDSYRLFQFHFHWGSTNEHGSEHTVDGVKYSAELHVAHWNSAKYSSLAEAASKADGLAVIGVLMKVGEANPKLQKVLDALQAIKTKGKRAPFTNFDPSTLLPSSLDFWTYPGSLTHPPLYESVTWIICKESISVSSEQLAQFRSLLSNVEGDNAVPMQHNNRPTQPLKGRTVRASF

With N#C/C(=C\c1cccc(Br)c1)c1nc(N)nc(Nc2ccc(S(N)(=O)=O)cc2)n1 [Compound 12b, 4-({4-Amino-6-[(1E)-2-(3-bromophenyl)-1-cyanoeth-1-en-1-yl]-1,3,5-triazin-2-yl}amino)benzene-1-sulfonamide] the Ki [1] was 2.62 µM, the “decrease of hCA II activity relative to the m-fluoro analogue” value [2] was 8 folds and the Ki [2] was 2 µM. For the same compound, the “Selectivity index (SI) I/IX” value [3] was 2.5, the “Selectivity index (SI) II/IX” value [3] was 2 and the Ki [3] was 1.02 µM. For the same compound, the “Selectivity index (SI) I/XII” value [4] was 0.3, the “Selectivity index (SI) II/XII” value [4] was 0.2 and the Ki [4] was 8.21 µM. For the same compound, the inhibition at 10 µM [5] was 14%, the inhibition at 10 µM [6] was 16% and the inhibition at 10 µM [7] was 16%. The inhibition at 10 µM [8] was 14% and the melting point was 234 to 236 °C.
For CC1(C)N=C(N)N=C(Nc2ccc(S(N)(=O)=O)cc2)N1 [Compound 7a, 4-[(4-Amino-6,6-dimethyl-1,6-dihydro-1,3,5-triazin-2-yl)amino]benzene-1-sulfonamide], the Ki [1] was 6.84 µM, the Ki [2] was 0.384 µM and the “Selectivity index (SI) I/IX” value [3] was 23.2. The “Selectivity index (SI) II/IX” value [3] was 1.3, the Ki [3] was 0.295 µM and the “Selectivity index (SI) I/XII” value [4] was 1.5. The “Selectivity index (SI) II/XII” value [4] was 0.1, the Ki [4] was 4.65 µM and the inhibition at 10 µM [5] was no more than 10%. It also gave an inhibition at 10 µM [6] of 12%, an inhibition at 10 µM [7] of no more than 10% and an inhibition at 10 µM [8] of no more than 10%. It also gave a melting point of 268 to 270 °C.
NC1=NC2(CCCCC2)N(c2ccc(S(=O)(=O)Nc3ccccn3)cc2)C(N)=N1 (as salt: HCl) [Compound 6e, 4-(2,4-Diamino-1,3,5-triazaspiro[5.5]undeca-2,4-dien-1-yl)-N-(pyridin-2-yl)benzene-1-sulfonamide.HCl] showed a melting point of 246 to 248 °C.
With N#C/C(=C\c1ccc2c(c1)OCO2)c1nc(N)nc(Nc2ccc(S(N)(=O)=O)cc2)n1 [Compound 12e, 4-({4-Amino-6-[(1E)-2-(2H-1,3-benzodioxol-5-yl)-1-cyanoeth-1-en-1-yl]-1,3,5-triazin-2-yl}amino)benzene-1-sulfonamide] the Ki [1] was 4.05 µM, the Ki [2] was 0.893 µM and the “Selectivity index (SI) I/IX” value [3] was 4. For the same compound, the “Selectivity index (SI) II/IX” value [3] was 1, the Ki [3] was 0.971 µM and the “Selectivity index (SI) I/XII” value [4] was 0.5. The “Selectivity index (SI) II/XII” value [4] was 0.1, the Ki [4] was 8.54 µM and the inhibition at 10 µM [5] was no more than 10%. For the same compound, the inhibition at 10 µM [6] was 13%, the inhibition at 10 µM [7] was 27% and the inhibition at 10 µM [8] was 11%. It also gave a melting point of 269 to 271 °C.
For N#C/C(=C\c1ccccc1)c1nc(N)nc(Nc2ccc(S(N)(=O)=O)cc2)n1 [Compound 12a, 4-({4-Amino-6-[(1E)-1-cyano-2-phenyleth-1-en-1-yl]-1,3,5-triazin-2-yl}amino)benzene-1-sulfonamide], the Ki [1] was 3.6 µM, the Ki [2] was 0.436 µM and the “Selectivity index (SI) I/IX” value [3] was 2.3. The “Selectivity index (SI) II/IX” value [3] was 0.3, the Ki [3] was 1.54 µM and the “Selectivity index (SI) I/XII” value [4] was 0.4. For the same compound, the “Selectivity index (SI) II/XII” value [4] was 0.05, the Ki [4] was 8.06 µM and the inhibition at 10 µM [5] was no more than 10%. It also gave an inhibition at 10 µM [6] of no more than 10%, an inhibition at 10 µM [7] of no more than 10% and an inhibition at 10 µM [8] of no more than 10%. For the same compound, the melting point was 174 to 176 °C.
Compound NC1=NC2(CCCCC2)N(c2ccc(S(=O)(=O)Nc3nccs3)cc2)C(N)=N1 (as salt: HCl) [Compound 6i, 4-(2,4-Diamino-1,3,5-triazaspiro[5.5]undeca-2,4-dien-1-yl)-N-(1,3-thiazol-2-yl)benzene-1-sulfonamide.HCl] has a melting point of 245 to 247 °C.
In the case of NC1=NC2(CCCC2)N(c2ccc(S(=O)(=O)Nc3ccccn3)cc2)C(N)=N1 (as salt: HCl) [Compound 6d, 4-(7,9-Diamino-6,8,10-triazaspiro[4.5]deca-7,9-dien-6-yl}-N-(pyridin-2-yl)benzene-1-sulfonamide.HCl], the melting point is reported as 221 to 223 °C.
For CC1CCC2(CC1)N=C(N)N=C(Nc1ccc(S(N)(=O)=O)cc1)N2 (stereo not drawn) [Compound 8c, 4-({4-Amino-9-methyl-1,3,5-triazaspiro[5.5]undeca-2,4-dien-2-yl}amino)benzene-1-sulfonamide], the Ki [1] was 0.408 µM, the Ki [2] was 0.591 µM and the “Selectivity index (SI) I/IX” value [3] was 0.3. For the same compound, the “Selectivity index (SI) II/IX” value [3] was 0.5, the Ki [3] was 1.22 µM and the “Selectivity index (SI) I/XII” value [4] was 0.4. The “Selectivity index (SI) II/XII” value [4] was 0.6, the Ki [4] was 0.936 µM and the inhibition at 10 µM [5] was no more than 10%. It also gave an inhibition at 10 µM [6] of no more than 10%, an inhibition at 10 µM [7] of no more than 10% and an inhibition at 10 µM [8] of no more than 10%. For the same compound, the melting point was 264 to 266 °C.
